This is an account of results in US7629313B2, “Immunomodulatory polymeric antigens for treating inflammatory pathologies” (Eli Lilly and Company, priority 2003, dated 2009).

The test system of assay [1] is human monocyte-derived iDC. Put plainly: Uptake of fluorescent polymer by iDCs, confocal microscopy. To be noted: two minutes incubation at 37° C.; labeled Compound 15 50 μg/ml, FITC-dextran 1 mg/ml. The class given is cell-based. The procedure: Oregon-green labeled Compound 15 is prepared as described in PCT International Publication WO 01/79242. Briefly, Oregon-green (Molecular Probes, Eugene, Oreg.)-conjugated Lipid II is included in an MtgA-polymerization reaction at a ratio of 1:4 with unlabeled Lipid 11 to produce a 25% Oregon-green labeled polymer. The polymeric material is purified and treated as previously described. For uptake studies, fluorescent Compound 15 at a final concentration of 50 μg/ml, or Lysine-fixable FITC-conjugated dextran (40 kDa size, Molecular Probes, Eugene, Oreg.) at 1 mg/ml, is incubated with human monocyte-derived iDC prepared as described in Example 5 for two minutes at 37° C. After incubation, extracellular probe is removed by washing the cells four times in ice cold complete DC medium (Example 5). Washed cells are then incubated at 37° C. and staining is stopped at two-minute intervals by washing in 1% paraformaldehyde fix diluted in flow wash solution (which also contains the metabolic poison sodium azide; protocol described in Example 5). Glass slide samples are prepared at each time interval and sealed with clear nail polish. Samples are stored at −20° C. and protected from light until analysis on a Radiance 2100 confocal microscope (BioRad Laboratories, Hercules, Calif.).

For assay [2], the system named is human monocyte-derived dendritic cells. Put plainly: Kinetics of fluorescent polymer uptake by iDCs, flow cytometry. In kind it is cell-based. To be noted: labeled Compound 15 50 μg/ml, FITC-dextran 1 mg/ml. The procedure:
In these experiments, human monocyte-derived dendritic cells are prepared as described in Example 5. Dendritic cells are resuspended at 5×10^5 cells/sample and incubated […] at 37° C. At the start of each time course, cells are incubated with either fluorescent Compound 15 at a final concentration of 50 μg/ml or Lysine-fixable FITC-conjugated dextran (40 kDa size, Molecular Probes, Eugene, Oreg.) at 1 mg/ml. At 0, 2, 10, 20, 30, 40, and 50 minutes after the start of incubation, uptake is stopped by washing the cells with four washes of ice cold flow wash buffer (Example 5). The washed cells are fixed in paraformaldehyde also as described in Example 5. Stained, fixed cells are stored at 4° C. protected from light until analysis using a FC500 flow cytometer (Beckman Coulter, Miami, Fla.). Once cells are correctly gated for forward and side scatter profiles, mean fluorescent intensity of the population is evaluated for 10,000 cells/sample. […] To control for non-specific adhesion of the molecules to the cell surface (which could be read as a positive in this assay), cells are also incubated with fluorescent polymers at 0° C. […] At this temperature, signal from neither the control molecule (FITC-dextran) nor Compound 15 increases over time (FIG. 5).

On to FITC-Dextran, for which the “Intracellular localization of polymer in iDCs (confocal images)” value in assay [1] is reported as “Localization of polymer in endocytic vacuoles”. In addition, the “Uptake by DC at 0° C. (cells metabolically inactive)” value in assay [2] was “inhibited”.
